Measured values published in PMC10648349, “Aromatic Diboronic Acids as Effective KPC/AmpC Inhibitors” (Molecules, 2023).
Converted amounts (≈) assume the structure as drawn. One block for each compound: values may come before it.

Legend:
[1] = MTT-based viability assay; format: cell-based; settings: human, MRC-5 human fibroblasts, 72 h, read-out: Viability of MRC-5 cells (% of viable cells ± SD)
Procedure: MRC-5 human fibroblasts (ECACC) were cultured in MEME, Minimum Essential Medium Eagle (Merck) supplemented with 10% fetal bovine serum (Merck), 2 mM l-glutamine, antibiotics (100 U/mL penicillin, 100 μg/mL streptomycin, Merck) and 1% non-essential amino acids (Merck). Cells were grown in 75 cm^2 cell culture flasks (Sarstedt) in a humidified atmosphere of CO2/air (5/95%) at 37 °C. MTT-based viability assay was conducted as described previously. Optical densities were measured at 570 nm using a BioTek microplate reader. All measurements were carried out in three replicates, and the results were expressed as a percent of viable cells versus control cells.

[2] = test system: K. pneumoniae ATCC BAA-1705 KPC-2(+); assay: MIC of tested agent alone, microdilution; format: cell-based; settings: Klebsiella pneumoniae, ATCCBAA1705; read-out: MIC of agent alone
Procedure: (§1) To examine the ability of tested agents to inhibit various carbapenemases and AmpC-enzymes, their synergy with antibiotics against β-lactamase-producing strains was assessed by checkerboard microdilution assay, with slight modification. Checkerboards were prepared in microtiter plates, with seven two-fold dilutions of β-lactams (1–64 mg/L) in the rows and three two-fold dilutions of tested agents and PBA (4–16 mg/L) in the columns. Tested agents’ concentrations were limited to the concentrations at which the newest commercially available BLIs (vaborbactam, relebactam, and avibactam) are used in susceptibility testing. Plates were inoculated and incubated as in the MIC microdilution assay. Parallel, MICs of tested agents and PBA alone were determined by the microdilution assay. Following the incubation, antibiotic MICs in the presence of each agent’s concentration were determined. Moreover, for the first well without growth found in each checkerboard row and column along the growth/non-growth interface, the fractional inhibitory concentration index (FICI) was calculated using the formula below:FICI = [(MIC of antibiotic in combination)/(MIC of antibiotic alone)] + [(MIC of the tested agent in combination)/(MIC of tested agent alone)].

[3] = test system: K. pneumoniae 81 KPC-3(+); assay: MIC of tested agent alone, microdilution; format: cell-based; settings: Klebsiella pneumoniae; read-out: MIC of agent alone
Procedure: as §1

E. coli 76 KPC-2(+) = assay: MIC of tested agent alone, microdilution; format: cell-based; settings: Escherichia coli; read-out: MIC of agent alone
Procedure: as §1

E. coli 77 CMY-2(+) = assay: MIC of tested agent alone, microdilution; format: cell-based; settings: Escherichia coli; read-out: MIC of agent alone
Procedure: as §1

[4] = test system: K. pneumoniae 83 KPC-3(+), CTX-M-3(+); assay: MIC of tested agent alone, microdilution; format: cell-based; settings: Klebsiella pneumoniae; read-out: MIC of agent alone
Procedure: as §1

[5] = test system: P. aeruginosa MUW 700 AmpC(+); assay: MIC of tested agent alone, microdilution; format: cell-based; settings: Pseudomonas aeruginosa; read-out: MIC of agent alone
Procedure: as §1

E. faecium ATCC 6057 = assay: direct antimicrobial activity (disc-diffusion, MIC, MBC); format: cell-based; settings: Enterococcus faecium, ATCC6057
Procedure: (§2) Direct antimicrobial activity against Gram-negative and Gram-positive bacterial strains, as well as against yeast, was examined as previously described by the disc-diffusion test, the MIC determination assay, the MBC (for bacteria), and the MFC (for yeasts) determination tests. All the above-mentioned tests were performed according to EUCAST [71, 72] and CLSI [73, 74, 75, 76, 77] recommendations. The following reference agents were used: nitrofurantoin (for Gram-negative rods), linezolid (for Gram-positive bacteria), and fluconazole (in the case of fungi). The new aromatic diboronic acids were dissolved in DMSO (Sigma, St. Louis, MO, USA). In the disc-diffusion test, the concentration of new agents was 0.4 mg per disc.

E. faecalis ATCC 29212 = assay: as above; format: cell-based; settings: Enterococcus faecalis, ATCC29212
Procedure: as §2

S. aureus ATCC 6538P = assay: as above; format: cell-based; settings: Staphylococcus aureus, ATCC6538P
Procedure: as §2

[6] = test system: S. aureus ATCC 43300 MRSA; assay: as above; format: cell-based; settings: Staphylococcus aureus
Procedure: as §2

[7] = test system: S. epidermidis ATCC 12228; assay: as above; format: cell-based; settings: Staphylococcus epidermidis, ATCC12228
Procedure: as §2

AmpC producers = assay: microdilution with ceftazidime; format: cell-based
Procedure: as §1
(§3) For calculations, all off-scale MICs were converted to the next-highest doubling concentration. Subsequently, both the average and the lowest FICI were interpreted. The interpretation was as follows: FICI ≤ 0.5, synergy; 0.5 < FICI ≤ 4, indifference and FICI > 4, antagonism. Primarily, examined combinations consisted of meropenem (Pol-Aura, Morag, Poland) plus tested agents against carbapenemases-producing strains and ceftazidime (Pol-Aura, Morag, Poland) plus tested agents against AmpC-producing strains. For agents that reduced meropenem MIC at least 4-fold for at least two tested strains, similar assays were performed with imipenem (Pol-Aura, Morag, Poland) and ertapenem (Pol-Aura, Morag, Poland).

[8] = test system: P. aeruginosa MUW 700 cAmpC-positive; assay: combination disc test CDT-AmpC; format: cell-based; settings: Pseudomonas aeruginosa; agent 0.3 mg per disc; read-out: Diameter of inhibition zone, CAZ-30 disc with agent
C. krusei ATCC 6258 = assay: antifungal activity (disc-diffusion, MIC, MFC); format: cell-based, Candida krusei; settings: Pichia kudriavzevii, ATCC6258; fluconazole by Etest
Procedure: as §2

[9] = test system: E. coli 77 CMY-2-positive; assay: combination disc test CDT-AmpC; format: cell-based; settings: Escherichia coli; agent 0.3 mg per disc; read-out: Diameter of inhibition zone, CAZ-30 disc with agent
[10] = test system: E. coli 77 CMY-2-positive; assay: checkerboard microdilution, antibiotic plus tested agent; format: cell-based, Escherichia coli
Procedure: as §1, §3

[11] = test system: P. aeruginosa MUW 700 cAmpC-positive; assay: as above; format: cell-based, Pseudomonas aeruginosa
Procedure: as §1, §3

[12] = test system: C. parapsilosis ATCC 22019; assay: antifungal activity (disc-diffusion, MIC, MFC); format: cell-based, Candida parapsilosis; settings: Lodderomyces parapsilosis, ATCC22019; fluconazole by Etest
Procedure: as §2

[13] = test system: K. pneumoniae ATCC 700603 ESBL-positive; assay: combination disc test CDT-ESBL; format: cell-based; settings: Klebsiella pneumoniae, ATCC700603; agent 0.3 mg per disc; read-out: Diameter of inhibition zone, CAZ-30 disc with agent
[14] = test system: C. guilliermondii IBA 155; assay: antifungal activity (disc-diffusion, MIC, MFC); format: cell-based, Candida guilliermondii; settings: Meyerozyma guilliermondii, IBA155; fluconazole by Etest
Procedure: as §2

[15] = test system: K. pneumoniae ATCC BAA 1705 KPC-2-positive; assay: combination disc test CDT-KPC; format: cell-based; settings: Klebsiella pneumoniae, BAA1705; agent 0.3 mg per disc; read-out: Diameter of inhibition zone, MEM-10 disc with agent
C. tropicalis IBA 171 = assay: antifungal activity (disc-diffusion, MIC, MFC); format: cell-based; settings: Candida tropicalis, IBA171; fluconazole by Etest
Procedure: as §2

C. tropicalis ATCC 750 = assay: antifungal activity (disc-diffusion, MIC, MFC); format: cell-based; settings: Candida tropicalis, ATCC750; fluconazole by Etest
Procedure: as §2

C. albicans ATCC 90028 = assay: antifungal activity (disc-diffusion, MIC, MFC); format: cell-based; settings: Candida albicans, ATCC90028; fluconazole by Etest
Procedure: as §2

S. cerevisiae ATCC 9763 = assay: antifungal activity (disc-diffusion, MIC, MFC); format: cell-based; settings: Saccharomyces cerevisiae, ATCC9763; fluconazole by Etest
Procedure: as §2

[16] = test system: K. pneumoniae 81 KPC-3-positive; assay: checkerboard microdilution, antibiotic plus tested agent; format: cell-based, Klebsiella pneumoniae; settings: Klebsiella pneumoniae; read-out: MIC of ertapenem alone
Procedure: as §1, §3

[17] = test system: K. pneumoniae ATCC BAA-1705 KPC-2-positive; assay: as above; format: cell-based, Klebsiella pneumoniae; settings: Klebsiella pneumoniae, ATCCBAA1705; read-out: MIC of ertapenem alone
Procedure: as §1, §3

[18] = test system: K. pneumoniae 83 KPC-3-positive, CTX-M-3-positive; assay: as above; format: cell-based, Klebsiella pneumoniae; settings: Klebsiella pneumoniae; read-out: MIC of ertapenem alone
Procedure: as §1, §3

KPC producers = assay: microdilution with carbapenems; format: cell-based; settings: strains used in this study
Procedure: as §1, §3

[19] = test system: E. coli 76 KPC-2-positive; assay: checkerboard microdilution, antibiotic plus tested agent; format: cell-based, Escherichia coli; settings: Escherichia coli; read-out: MIC of ertapenem alone
Procedure: as §1, §3

MIC [2]: > 400 µg/mL
MIC [3]: > 400 µg/mL
MIC (E. coli 76 KPC-2(+)): > 400 µg/mL
MIC (E. coli 77 CMY-2(+)): > 400 µg/mL
MIC [4]: > 400 µg/mL
MIC [5]: > 400 µg/mL
MIC (E. faecium ATCC 6057): > 400 µg/mL
MIC (E. faecalis ATCC 29212): 200 µg/mL (≈ 928 µM)
MIC (S. aureus ATCC 6538P): 400 µg/mL (≈ 1860 µM)
MIC [6]: > 400 µg/mL
MIC [7]: > 400 µg/mL
ceftazidime MIC reduction, up to (AmpC producers; agent 4 mg/L): ≤ 2 fold
ceftazidime MIC reduction, up to (AmpC producers; agent 8 mg/L): up to 4 fold
ceftazidime MIC reduction, up to (AmpC producers; agent 16 mg/L): ≤ 8 fold
MIC (C. krusei ATCC 6258): > 400 µg/mL
MIC [12]: > 400 µg/mL
MIC [14]: > 400 µg/mL
MIC (C. tropicalis IBA 171): > 400 µg/mL
MIC (C. tropicalis ATCC 750): > 400 µg/mL
MIC (C. albicans ATCC 90028): 400 µg/mL (≈ 1860 µM)
MIC (S. cerevisiae ATCC 9763): > 400 µg/mL
SMILES: OB(O)c1cc(B(O)O)c(B(O)O)s1 [5c, thiophene-2,3,5-triboronic acid]
viability at 72 h, 12.5 mg/L ([1]; 12.5 mg/L): 102 ± 3.4%
viability at 72 h, 25 mg/L ([1]; 25 mg/L): 97.9 ± 1.4%
viability at 72 h, 50 mg/L ([1]; 50 mg/L): 85.6 ± 0.7%
zone of inhibition at 300 µg/disc [8]: 21 mm
zone of inhibition at 300 µg/disc [9]: 22 mm
Average FICI with ceftazidime [10]: 0.43
The lowest FICI with ceftazidime [10]: 0.27
Average FICI with ceftazidime [11]: 0.43
Interpretation of the average FICI with ceftazidime [11]: S (FICI ≤ 0.5, synergy)
Interpretation of the lowest FICI with ceftazidime [11]: S (FICI ≤ 0.5, synergy)
The lowest FICI with ceftazidime [11]: 0.27
zone of inhibition at 300 µg/disc [13]: 16 mm
zone of inhibition at 300 µg/disc [15]: 6 mm

SMILES: C[C@@H](O)[C@H]1C(=O)N2C(C(=O)O)=C(S[C@@H]3CN[C@H](C(=O)Nc4cccc(C(=O)O)c4)C3)[C@H](C)[C@H]12 [ERT, ertapenem, reference compound]
MIC [16]: 32 µg/mL
MIC [17]: 64 µg/mL
MIC [18]: 64 µg/mL
MIC range of ertapenem alone (KPC producers): 32 to 256 µg/mL
MIC [19]: 256 µg/mL
